From ChEMBL document CHEMBL1201862, “PubChem BioAssay data set” (2004)
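Compound exposure: 48 hours, 5 concentrations, 96-well plates. Abbreviation: GI50, concentration required for 50% inhibition of growth.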 Active and inactive are the calls of the source. No stated cut-off is given here; in the data, active = GI50 up to about 1.1 µM and inactive = higher.

Experiments:
Experiment in all cases: inhibition of tumour cell growth, NCI panel, 48 h
786-0 = tested on: 786-0
SK-MEL-5 = tested on: SK-MEL-5
A549 = tested on: A549
NCI-H23 = tested on: NCI-H23
SN12C = tested on: SN12C
SF-295 = tested on: SF-295
SNB-75 = tested on: SNB-75
A498 = tested on: A498
UACC-62 = tested on: UACC-62
CAKI-1 = tested on: CAKI-1
HCC 2998 = tested on: HCC 2998
CCRF-CEM = tested on: CCRF-CEM
OVCAR-4 = tested on: OVCAR-4
HL-60 = tested on: HL-60
LOX IMVI = tested on: LOX IMVI
NCI-H460 = tested on: NCI-H460
SR = tested on: SR

Measured: GI50

C[N+](C)(C)C1CC([N+](C)(C)C)C2c3ccccc3C21 (centres undefined)
inactive: 786-0 > 100 µM | SK-MEL-5 > 100 µM | A549 > 100 µM | NCI-H23 > 100 µM | SN12C > 100 µM | SF-295 > 100 µM | SNB-75 > 100 µM | A498 > 100 µM | UACC-62 > 100 µM | CAKI-1 > 100 µM | HCC 2998 > 100 µM | CCRF-CEM > 100 µM | OVCAR-4 > 100 µM | HL-60 > 100 µM | LOX IMVI > 100 µM | NCI-H460 > 100 µM

O=C1C(=Cc2ccc(F)cc2)C(=O)c2ccccc21
inactive: 786-0 > 100 µM | SK-MEL-5 > 100 µM | A549 > 100 µM | NCI-H23 > 100 µM | SF-295 > 100 µM | SNB-75 24.9 µM | A498 > 100 µM | UACC-62 > 100 µM | CAKI-1 > 100 µM | HCC 2998 > 100 µM | CCRF-CEM 41.2 µM | OVCAR-4 > 100 µM | HL-60 30.5 µM | NCI-H460 > 100 µM

CN(C(=O)c1ccco1)C(=S)N1CCN(c2ccccc2)CC1
inactive: 786-0 > 100 µM | SR > 100 µM | SK-MEL-5 > 100 µM | A549 > 100 µM | NCI-H23 > 100 µM | SN12C > 100 µM | SF-295 > 100 µM | SNB-75 > 100 µM | UACC-62 > 100 µM | CAKI-1 > 100 µM | CCRF-CEM > 100 µM | OVCAR-4 > 100 µM | HL-60 > 100 µM | LOX IMVI > 100 µM | NCI-H460 > 100 µM

COc1ccc(NC(=O)CC(=O)N/N=C(\C)c2cc3ccccc3oc2=O)cc1
inactive: 786-0 > 100 µM | SK-MEL-5 > 100 µM | A549 > 100 µM | NCI-H23 > 100 µM | SN12C > 100 µM | SF-295 > 100 µM | SNB-75 > 100 µM | UACC-62 > 100 µM | CCRF-CEM > 100 µM | HL-60 > 100 µM | LOX IMVI > 100 µM | NCI-H460 > 100 µM

O=c1c2ccccc2nc(-c2ccccc2Cl)n1NC1OC(CO)C(O)C(O)C1O (centres undefined)
inactive: 786-0 > 100 µM | SK-MEL-5 > 100 µM | A549 > 100 µM | NCI-H23 > 100 µM | SN12C > 100 µM | SF-295 > 100 µM | SNB-75 97.9 µM | A498 > 100 µM | UACC-62 > 100 µM | CAKI-1 > 100 µM | HCC 2998 > 100 µM | CCRF-CEM > 100 µM | OVCAR-4 > 100 µM | HL-60 > 100 µM | NCI-H460 > 100 µM

NC(=O)c1nc(-c2ccc(Cl)c(Cl)c2)nc2ccccc12
inactive: 786-0 3.69 µM | SR > 100 µM | SK-MEL-5 > 49.3 µM | A549 > 21.4 µM | NCI-H23 39.7 µM | SN12C > 100 µM | SNB-75 2.68 µM | A498 16.1 µM | UACC-62 > 24.9 µM | CAKI-1 > 94.4 µM | CCRF-CEM > 100 µM | OVCAR-4 > 100 µM | HL-60 > 100 µM | LOX IMVI > 100 µM | NCI-H460 > 55.7 µM

O=C(CC1(O)C(=O)Nc2c(Cl)ccc(Cl)c21)c1ccc(F)cc1 (centres undefined)
inactive: 786-0 31.2 µM | SK-MEL-5 17.9 µM | A549 58.1 µM | NCI-H23 23.2 µM | SN12C 60.1 µM | SF-295 36 µM | SNB-75 24.1 µM | CAKI-1 44.7 µM | HCC 2998 82.4 µM | CCRF-CEM 25.9 µM | OVCAR-4 31 µM | HL-60 28.4 µM | LOX IMVI 32.7 µM | NCI-H460 54.8 µM

OC12CCC3(OC4CCCCO4)c4ccccc4C3C1c1ccccc12 (centres undefined)
inactive: 786-0 67.5 µM | SR 37.2 µM | SK-MEL-5 48.5 µM | A549 85.1 µM | NCI-H23 90.2 µM | SN12C 87.7 µM | SF-295 52.5 µM | SNB-75 > 100 µM | UACC-62 56.8 µM | CCRF-CEM 58.9 µM | OVCAR-4 > 100 µM | HL-60 30.3 µM | LOX IMVI 38.8 µM | NCI-H460 35.2 µM

COC(=O)C(=O)C(C(=O)C(=O)Nc1ccccc1[N+](=O)[O-])c1nc2ccc([N+](=O)[O-])cc2nc1O (centres undefined)
inactive: 786-0 > 100 µM | SR > 100 µM | SK-MEL-5 46.2 µM | A549 > 100 µM | NCI-H23 > 100 µM | SN12C > 100 µM | SF-295 > 100 µM | SNB-75 > 100 µM | A498 > 100 µM | UACC-62 > 100 µM | CAKI-1 > 100 µM | CCRF-CEM > 100 µM | OVCAR-4 > 100 µM | HL-60 > 100 µM | LOX IMVI > 100 µM | NCI-H460 > 100 µM

CSc1nnc(COc2ccc(Cl)cc2)o1
inactive: 786-0 > 100 µM | SK-MEL-5 > 100 µM | A549 > 100 µM | NCI-H23 > 100 µM | SN12C > 100 µM | SF-295 > 100 µM | SNB-75 > 100 µM | A498 > 100 µM | UACC-62 > 100 µM | CAKI-1 > 100 µM | OVCAR-4 > 100 µM | LOX IMVI > 100 µM | NCI-H460 > 100 µM

CSC1C=C(C(C)C)CCC1(C)SC (centres undefined)
inactive: 786-0 17.8 µM | SK-MEL-5 17.5 µM | A549 31.5 µM | NCI-H23 19.3 µM | SN12C 16.9 µM | SNB-75 17.6 µM | A498 25.6 µM | UACC-62 25.6 µM | CAKI-1 18.3 µM | HCC 2998 16.6 µM | CCRF-CEM 21 µM | OVCAR-4 18.1 µM | HL-60 2.3 µM | LOX IMVI 18.3 µM | NCI-H460 17.2 µM

CN(/N=C\c1ccnc2ccccc12)c1ccccc1
inactive: 786-0 18.5 µM | SK-MEL-5 17.3 µM | A549 21.6 µM | NCI-H23 22.3 µM | SN12C 29.9 µM | SF-295 25.6 µM | SNB-75 32.5 µM | A498 21 µM | UACC-62 19.5 µM | CAKI-1 31.5 µM | CCRF-CEM 10 µM | OVCAR-4 25.4 µM | HL-60 17.5 µM | LOX IMVI 17.2 µM | NCI-H460 23.7 µM

Cc1nc2sccn2c1C(=O)NN
inactive: 786-0 > 100 µM | SR > 100 µM | SK-MEL-5 > 100 µM | A549 > 100 µM | NCI-H23 > 100 µM | SN12C > 100 µM | SF-295 > 100 µM | UACC-62 > 100 µM | CAKI-1 > 100 µM | HCC 2998 > 100 µM | CCRF-CEM > 100 µM | HL-60 > 100 µM | LOX IMVI > 100 µM | NCI-H460 > 100 µM

c1ccc(SC(Sc2ccccc2)=C2CCC2)cc1
inactive: 786-0 > 100 µM | SR > 100 µM | SK-MEL-5 > 100 µM | A549 > 100 µM | NCI-H23 > 100 µM | SN12C > 100 µM | SF-295 > 100 µM | SNB-75 98.4 µM | A498 > 100 µM | UACC-62 65 µM | CAKI-1 > 100 µM | CCRF-CEM > 100 µM | OVCAR-4 > 100 µM | HL-60 > 100 µM | LOX IMVI > 100 µM | NCI-H460 > 100 µM
